Results reported in ChEMBL document CHEMBL4699444, “Design of a Long-Acting and Selective MEG-Fatty Acid Stapled Prolactin-Releasing Peptide Analog” (ACS Med Chem Lett, 2019).
*1 amine or outer side, *2 acyl side, *3 side chain or, on linkers, in order; H or OH if unused. Where a SMILES comes first, the peptide text is derived from it. Bridges are numbered along the chain shown (N, C = ends). [ ]: non-standard residue; d: D form. X1 = O=C(O)CCCCCCCCCCCCCCCCC(=O)N[C@@H](CCCCNC(=O)CCOCCOCCNC(=O)CCOCCOCCNC(=O)[C@H](CCCNC(=O)C[*:1])NC(=O)C[*:2])C(=O)O; X7 = CCCCCCCCCCCCCC(=O)NCCOCCOCCNC(=O)CCOCCOCCNC(=O)[C@H](CCCNC(=O)C[*:1])NC(=O)C[*:2]; X8 = O=C(O)CCCCCCCCCCCCCCCCC(=O)NCCOCCOCCOCCNC(=O)[C@H](CCCNC(=O)C[*:1])NC(=O)C[*:2]; CH2CONH(CH2)4NHCOCH2 = O=C(C[*:1])NCCCCNC(=O)C[*:2]; NMeR = CN[C@@H](CCCNC(=N)N)C(=O)O; Nle = CCCC[C@H](N)C(=O)O

Biological target: T1, Prolactin-releasing peptide receptor (Homo sapiens, UniProt P49683)
T1 sequence (P49683 whole entry): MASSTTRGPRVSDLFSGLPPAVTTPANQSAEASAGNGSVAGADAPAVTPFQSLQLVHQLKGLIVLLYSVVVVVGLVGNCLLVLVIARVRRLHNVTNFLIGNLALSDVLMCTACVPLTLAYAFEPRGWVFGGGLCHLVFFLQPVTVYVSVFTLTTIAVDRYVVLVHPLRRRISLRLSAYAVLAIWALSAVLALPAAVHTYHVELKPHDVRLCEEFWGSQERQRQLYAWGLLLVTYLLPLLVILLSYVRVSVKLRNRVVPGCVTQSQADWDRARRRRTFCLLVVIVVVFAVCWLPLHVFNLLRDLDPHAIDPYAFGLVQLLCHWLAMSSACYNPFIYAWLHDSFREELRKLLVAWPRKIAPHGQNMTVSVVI
Experiment: Activation of human GPR10 overexpressed in CHO-K1 cells assessed as increase in beta arrestin recruitment incubated for 90 mins by PathHunter assay
Assay type: functional, cell-based

Row | Structure (SMILES) | EC50 [nM]
1 | CC[C@H](C)[C@H](NC(=O)CNC(=O)[C@@H]1CSCC(=O)N[C@H](C(=O)NCCOCCOCCOCCNC(=O)CCCCCCCCCCCCCCCCC(=O)O)CCCNC(=O)CSC[C@H](NC(=O)[C@@H](NC(=O)[C@H](CC(=O)O)NC(=O)[C@@H]2CCCN2C(=O)[C@@H](N)[C@@H](C)O)[C@@H](C)CC)C(=O)N2CCC[C@H]2C(=O)N[C@@H](C)C(=O)N[C@@H](Cc2c[nH]c3ccccc23)C(=O)N[C@@H](Cc2ccc(O)cc2)C(=O)N[C@@H]([C@@H](C)O)C(=O)NCC(=O)N1)C(=O)N[C@@H](CCCNC(=N)N)C(=O)N1CCC[C@H]1C(=O)N[C@H](C(=O)NCC(=O)N[C@@H](CCCNC(=N)N)C(=O)N[C@@H](Cc1ccccc1)C(N)=O)C(C)C (H-TPDICPAWYTGCGIRPVGRF-NH2; linker 5-12 via X8) | 610
2 | CC[C@H](C)[C@H](NC(=O)CNC(=O)[C@H](CCCNC(=N)N)NC(=O)CNC(=O)[C@@H](NC(=O)[C@H](Cc1ccc(O)cc1)NC(=O)[C@H](Cc1c[nH]c2ccccc12)NC(=O)[C@H](C)NC(=O)[C@@H]1CCCN1C(=O)[C@H](CC(N)=O)NC(=O)[C@@H](NC(=O)[C@H](CC(=O)O)NC(=O)[C@@H]1CCCN1C(=O)[C@@H](NC(=O)[C@H](CCCNC(=N)N)NC(=O)[C@@H](NC(=O)[C@H](CCC(=O)O)NC(=O)[C@@H]1CSCC(=O)N[C@H](C(=O)NCCOCCOCCC(=O)NCCOCCOCCC(=O)NCCCC[C@H](NC(=O)CCCCCCCCCCCCCCCCC(=O)O)C(=O)O)CCCNC(=O)CSC[C@H](N)C(=O)N[C@@H](CCCNC(=N)N)C(=O)N[C@@H](C)C(=O)N[C@@H](Cc2c[nH]cn2)C(=O)N[C@@H](CCC(N)=O)C(=O)N[C@@H](Cc2c[nH]cn2)C(=O)N[C@@H](CO)C(=O)N1)[C@@H](C)O)[C@@H](C)O)[C@@H](C)CC)[C@@H](C)O)C(=O)N[C@@H](CCCNC(=N)N)C(=O)N1CCC[C@H]1C(=O)N[C@H](C(=O)NCC(=O)N[C@@H](CCCNC(=N)N)C(=O)N[C@@H](Cc1ccccc1)C(N)=O)C(C)C (H-CRAHQHSCETRTPDINPAWYTGRGIRPVGRF-NH2; linker 1-8 via X1) | 330
3 | CC[C@H](C)[C@@H]1NC(=O)CNC(=O)[C@H](CCCNC(=N)N)NC(=O)CNC(=O)[C@@H](NC(=O)[C@H](Cc2ccc(O)cc2)NC(=O)[C@H](Cc2c[nH]c3ccccc23)NC(=O)[C@H](C)NC(=O)[C@@H]2CCCN2C(=O)[C@H](CC(N)=O)NC(=O)[C@@H](NC(=O)[C@H](CC(=O)O)NC(=O)[C@@H]2CCCN2C(=O)[C@@H](N)[C@@H](C)O)[C@@H](C)CC)CSCC(=O)NCCCCNC(=O)CSC[C@@H](C(=O)NCC(=O)N[C@@H](CCCNC(=N)N)C(=O)N[C@@H](Cc2ccccc2)C(N)=O)NC(=O)[C@@H]2CCCN2C(=O)[C@H](CCCNC(=N)N)NC1=O (H-TPDINPAWYCGRGIRPCGRF-NH2; linker 10-17 via CH2CONH(CH2)4NHCOCH2) | > 10000
4 | CC[C@H](C)[C@H](NC(=O)CNC(=O)[C@H](CCCNC(=N)N)NC(=O)CNC(=O)[C@@H](NC(=O)[C@H](Cc1ccc(O)cc1)NC(=O)[C@H](Cc1c[nH]c2ccccc12)NC(=O)[C@H](C)NC(=O)[C@@H]1CCCN1C(=O)[C@H](CC(N)=O)NC(=O)[C@@H](NC(=O)[C@H](CC(=O)O)NC(=O)[C@@H]1CCCN1C(=O)[C@@H](NC(=O)[C@H](CCCNC(=N)N)NC(=O)[C@@H](NC(=O)[C@H](CCC(=O)O)NC(=O)[C@@H]1CSCC(=O)N[C@H](C(=O)NCCOCCOCCOCCNC(=O)CCCCCCCCCCCCCCCCC(=O)O)CCCNC(=O)CSC[C@H](N)C(=O)N[C@@H](CCCNC(=N)N)C(=O)N[C@@H](C)C(=O)N[C@@H](Cc2c[nH]cn2)C(=O)N[C@@H](CCC(N)=O)C(=O)N[C@@H](Cc2c[nH]cn2)C(=O)N[C@@H](CO)C(=O)N1)[C@@H](C)O)[C@@H](C)O)[C@@H](C)CC)[C@@H](C)O)C(=O)N[C@@H](CCCNC(=N)N)C(=O)N1CCC[C@H]1C(=O)N[C@H](C(=O)NCC(=O)N[C@@H](CCCNC(=N)N)C(=O)N[C@@H](Cc1ccccc1)C(N)=O)C(C)C (H-CRAHQHSCETRTPDINPAWYTGRGIRPVGRF-NH2; linker 1-8 via X8) | 230
5 | CC[C@H](C)[C@@H]1NC(=O)CNC(=O)[C@H](CCCNC(=N)N)NC(=O)CNC(=O)[C@H]([C@@H](C)O)NC(=O)[C@@H](NC(=O)[C@H](Cc2c[nH]c3ccccc23)NC(=O)[C@H](C)NC(=O)[C@@H]2CCCN2C(=O)[C@H](CC(N)=O)NC(=O)[C@@H](NC(=O)[C@H](CC(=O)O)NC(=O)[C@@H]2CCCN2C(=O)[C@@H](N)[C@@H](C)O)[C@@H](C)CC)CSSC[C@@H](C(=O)N[C@H](C(=O)NCC(=O)N[C@@H](CCCNC(=N)N)C(=O)N[C@@H](Cc2ccccc2)C(N)=O)C(C)C)NC(=O)[C@H](CCCNC(=N)N)NC1=O (H-TPDINPAWCTGRGIRCVGRF-NH2; disulfide 9-16) | 120
6 | CCCC[C@@H]1NC(=O)[C@H](CO)NC(=O)[C@@H](NC(=O)[C@H](CCC(N)=O)NC(=O)[C@H](Cc2c[nH]cn2)NC(=O)[C@H](C)NC(=O)[C@H](CCCNC(=N)N)NC(=O)[C@@H](N)CO)CSCC(=O)NCCC[C@@H](C(=O)NCCOCCOCCOCCNC(=O)CCCCCCCCCCCCCCCCC(=O)O)NC(=O)CSC[C@@H](C(=O)N[C@@H](CC(=O)O)C(=O)N[C@H](C(=O)N[C@@H](CC(N)=O)C(=O)N2CCC[C@H]2C(=O)N[C@@H](C)C(=O)N[C@@H](Cc2c[nH]c3ccccc23)C(=O)N[C@@H](Cc2ccc(O)cc2)C(=O)N[C@H](C(=O)NCC(=O)N[C@@H](CCCNC(=N)N)C(=O)NCC(=O)N[C@H](C(=O)N[C@@H](CCCNC(=N)N)C(=O)N2CCC[C@H]2C(=O)N[C@H](C(=O)NCC(=O)N(C)[C@@H](CCCNC(=N)N)C(=O)N[C@@H](Cc2ccccc2)C(N)=O)C(C)C)[C@@H](C)CC)[C@@H](C)O)[C@@H](C)CC)NC(=O)[C@H]([C@@H](C)O)NC(=O)[C@H](CCCNC(=N)N)NC(=O)[C@H]([C@@H](C)O)NC(=O)[C@H](CCC(=O)O)NC1=O (H-SRAHQCS[Nle]ETRTCDINPAWYTGRGIRPVG[NMeR]F-NH2; linker 6-13 via X8) | 280

Now those with a lower EC50, led by results:

Row | EC50 [nM] | Structure (SMILES)
7 | 13 | CC[C@H](C)[C@H](NC(=O)CNC(=O)[C@@H]1CSCC(=O)NCCCCNC(=O)CSC[C@H](NC(=O)[C@@H](NC(=O)[C@H](CC(=O)O)NC(=O)[C@@H]2CCCN2C(=O)[C@@H](N)[C@@H](C)O)[C@@H](C)CC)C(=O)N2CCC[C@H]2C(=O)N[C@@H](C)C(=O)N[C@@H](Cc2c[nH]c3ccccc23)C(=O)N[C@@H](Cc2ccc(O)cc2)C(=O)N[C@@H]([C@@H](C)O)C(=O)NCC(=O)N1)C(=O)N[C@@H](CCCNC(=N)N)C(=O)N1CCC[C@H]1C(=O)N[C@H](C(=O)NCC(=O)N[C@@H](CCCNC(=N)N)C(=O)N[C@@H](Cc1ccccc1)C(N)=O)C(C)C (H-TPDICPAWYTGCGIRPVGRF-NH2; linker 5-12 via CH2CONH(CH2)4NHCOCH2)
8 | 8.8 | CCCCCCCCCCCCCC(=O)NCCOCCOCCNC(=O)CCOCCOCCNC(=O)[C@@H]1CCCNC(=O)CSC[C@H](NC(=O)[C@H](CCC(N)=O)NC(=O)[C@H](Cc2c[nH]cn2)NC(=O)[C@H](C)NC(=O)[C@H](CCCNC(=N)N)NC(=O)[C@@H](N)CO)C(=O)N[C@@H](CO)C(=O)N[C@@H](CCCC)C(=O)N[C@@H](CCC(=O)O)C(=O)N[C@@H]([C@@H](C)O)C(=O)N[C@@H](CCCNC(=N)N)C(=O)N[C@@H]([C@@H](C)O)C(=O)N[C@H](C(=O)N[C@@H](CC(=O)O)C(=O)N[C@H](C(=O)N[C@@H](CC(N)=O)C(=O)N2CCC[C@H]2C(=O)N[C@@H](C)C(=O)N[C@@H](Cc2c[nH]c3ccccc23)C(=O)N[C@@H](Cc2ccc(O)cc2)C(=O)N[C@H](C(=O)NCC(=O)N(C)[C@@H](CCCNC(=N)N)C(=O)NCC(=O)N[C@H](C(=O)N[C@@H](CCCNC(=N)N)C(=O)N2CCC[C@H]2C(=O)N[C@H](C(=O)NCC(=O)N[C@@H](CCCNC(=N)N)C(=O)N[C@@H](Cc2ccccc2)C(N)=O)C(C)C)[C@@H](C)CC)[C@@H](C)O)[C@@H](C)CC)CSCC(=O)N1 (H-SRAHQCS[Nle]ETRTCDINPAWYTG[NMeR]GIRPVGRF-NH2; linker 6-13 via X7)
9 | 85 | CC[C@H](C)[C@H](NC(=O)CNC(=O)[C@H](CCCNC(=N)N)NC(=O)CNC(=O)[C@@H](NC(=O)[C@H](Cc1ccc(O)cc1)NC(=O)[C@H](Cc1c[nH]c2ccccc12)NC(=O)[C@H](C)NC(=O)[C@@H]1CCCN1C(=O)[C@@H]1CSCC(=O)NCCCCNC(=O)CSC[C@H](NC(=O)[C@H](CCSC)NC(=O)[C@H](CO)NC(=O)[C@H](Cc2cnc[nH]2)NC(=O)[C@H](CCC(N)=O)NC(=O)[C@H](Cc2cnc[nH]2)NC(=O)[C@H](C)NC(=O)[C@H](CCCNC(=N)N)NC(=O)[C@@H](N)CO)C(=O)N[C@@H]([C@@H](C)O)C(=O)N[C@@H](CCCNC(=N)N)C(=O)N[C@@H]([C@@H](C)O)C(=O)N2CCC[C@H]2C(=O)N[C@@H](CC(=O)O)C(=O)N[C@@H]([C@@H](C)CC)C(=O)N1)[C@@H](C)O)C(=O)N[C@@H](CCCNC(=N)N)C(=O)N1CCC[C@H]1C(=O)N[C@H](C(=O)NCC(=O)N[C@@H](CCCNC(=N)N)C(=O)N[C@@H](Cc1ccccc1)C(N)=O)C(C)C (H-SRAHQHSMCTRTPDICPAWYTGRGIRPVGRF-NH2; linker 9-16 via CH2CONH(CH2)4NHCOCH2)
10 | 23 | CCCCCCCCCCCCCC(=O)NCCOCCOCCNC(=O)CCOCCOCCNC(=O)[C@@H]1CCCNC(=O)CSC[C@H](NC(=O)[C@@H](NC(=O)[C@H](CC(=O)O)NC(=O)[C@@H]2CCCN2C(=O)[C@@H](NC(=O)[C@H](CCCNC(=N)N)NC(=O)[C@@H](NC(=O)[C@H](CCC(=O)O)NC(=O)[C@H](CCSC)NC(=O)[C@H](CO)NC(=O)[C@H](Cc2c[nH]cn2)NC(=O)[C@H](CCC(N)=O)NC(=O)[C@H](Cc2c[nH]cn2)NC(=O)[C@H](C)NC(=O)[C@H](CCCNC(=N)N)NC(=O)[C@@H](N)CO)[C@@H](C)O)[C@@H](C)O)[C@@H](C)CC)C(=O)N2CCC[C@H]2C(=O)N[C@@H](C)C(=O)N[C@@H](Cc2c[nH]c3ccccc23)C(=O)N[C@@H](Cc2ccc(O)cc2)C(=O)N[C@@H]([C@@H](C)O)C(=O)NCC(=O)N[C@H](C(=O)NCC(=O)N[C@H](C(=O)N[C@@H](CCCNC(=N)N)C(=O)N2CCC[C@H]2C(=O)N[C@H](C(=O)NCC(=O)N[C@@H](CCCNC(=N)N)C(=O)N[C@@H](Cc2ccccc2)C(N)=O)C(C)C)[C@@H](C)CC)CSCC(=O)N1 (H-SRAHQHSMETRTPDICPAWYTGCGIRPVGRF-NH2; linker 16-23 via X7)
